SMILES strings stand for the structures. Read-outs that look alike come from different tables or passages of the source. Bridge positions count the residues as written; N and C are the ends. Square brackets hold non-standard residues; d marks the D form. Peptide text beside a SMILES is read from it. Pen = CC(C)(S)[C@H](N)C(=O)O; Nle = CCCC[C@H](N)C(=O)O; GABA = NCCCC(=O)O; βAla = NCCC(=O)O

The target of experiment [1] is T1, hMC5-R (Homo sapiens, UniProt P33032).
T1 construct: expressed in transfected cells; host or cells: CHO-K1
T1 sequence (P33032 whole entry): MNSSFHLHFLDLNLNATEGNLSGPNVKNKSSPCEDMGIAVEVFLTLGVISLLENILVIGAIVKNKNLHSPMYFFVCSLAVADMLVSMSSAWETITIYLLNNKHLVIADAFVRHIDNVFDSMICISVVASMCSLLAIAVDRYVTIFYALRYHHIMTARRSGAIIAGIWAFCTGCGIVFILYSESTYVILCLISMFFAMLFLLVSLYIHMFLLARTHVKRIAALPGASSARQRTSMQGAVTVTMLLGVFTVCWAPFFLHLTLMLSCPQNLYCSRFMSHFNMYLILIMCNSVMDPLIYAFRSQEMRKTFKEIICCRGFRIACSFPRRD
The experiment can be described thus: Radioligand binding assay, [125I]-NDP-α-MSH competition, CHO-K1 membranes. The following applies: Table 5.

Experiment [2] has as its target T2, hMC4-R (Homo sapiens, UniProt P32245).
T2 construct: expressed in transfected cells; host or cells: CHO-K1
The description is as above.

The target in experiment [3] is T3, hMC1-R (Homo sapiens, UniProt Q01726).
T3 construct: expressed in transfected cells; host or cells: CHO-K1
T3 sequence (Q01726 whole entry): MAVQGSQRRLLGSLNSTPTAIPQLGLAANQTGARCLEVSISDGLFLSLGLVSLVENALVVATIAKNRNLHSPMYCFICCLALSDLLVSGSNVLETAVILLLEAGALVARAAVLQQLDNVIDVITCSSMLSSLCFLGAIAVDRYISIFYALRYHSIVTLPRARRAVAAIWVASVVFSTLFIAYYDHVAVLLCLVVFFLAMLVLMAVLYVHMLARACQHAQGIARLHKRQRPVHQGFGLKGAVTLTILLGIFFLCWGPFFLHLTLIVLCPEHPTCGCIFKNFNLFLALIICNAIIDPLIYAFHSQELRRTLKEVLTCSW
Kind of experiment: cyclic AMP bioassay (ECL) in CHO-K1 cells. It counts as cell-based.

The target of experiment [4] is T2, hMC4-R. Kind of experiment: cyclic AMP bioassay (ECL) in CHO-K1 cells. The format is cell-based.
Experiment [5] deals with T1, hMC5-R. Kind of experiment: cyclic AMP bioassay (ECL) in CHO-K1 cells. The format is cell-based.
Experiment [6] concerns the target T4, hMC3-R (Homo sapiens, UniProt P41968).
T4 construct: expressed in transfected cells; host or cells: CHO-K1
Kind of experiment: cyclic AMP bioassay (ECL) in CHO-K1 cells. It counts as cell-based.
Protocol: Intracellular cyclic AMP (cAMP) levels were determined by an electrochemiluminescence (ECL) assay (Meso Scale Discovery®, Gaithersburg, Md.; referred to hereinafter as MSD). […] Transgenic CHO-K1 cells stably expressing hMC receptor subtypes 1, 3, 4 or 5 were dispensed at a density of approximately 7,000 cells/well in 384-well Multi-Array®plates (MSD) containing integrated carbon electrodes and coated with anti-cAMP antibody. Increasing concentrations of the test compounds were added and the cells were incubated for approximately 40 minutes at approximately 37° C. […] At the end of the second incubation period read buffer (Tris-buffered solution containing an ECL co-reactant and Triton X-100 at ph 7.8) was added and the cAMP levels in the cell lysates were immediately determined by ECL detection with a Sector Imager 6000 Reader® (MSD). Data were analyzed using a computer-assisted non-linear regression analysis (XL fit; IDBS) and reported as either an EC50 value or a Kb value.
The Kb value reflects the potency of an antagonist and is determined by Schild analysis. In brief, concentration-response curves of an agonist are carried out in the presence of increasing concentrations of an antagonist. […] It is calculated by extrapolating the line on a Schild plot to zero on the y-axis.

Experiment [7] deals with T4, hMC3-R. The experiment can be described thus: Radioligand binding assay, [125I]-NDP-α-MSH competition, CHO-K1 membranes. The conditions noted are these: Table 5.
The target of experiment [8] is T3, hMC1-R. The experiment is described as above.

T2 sequence (P32245 whole entry): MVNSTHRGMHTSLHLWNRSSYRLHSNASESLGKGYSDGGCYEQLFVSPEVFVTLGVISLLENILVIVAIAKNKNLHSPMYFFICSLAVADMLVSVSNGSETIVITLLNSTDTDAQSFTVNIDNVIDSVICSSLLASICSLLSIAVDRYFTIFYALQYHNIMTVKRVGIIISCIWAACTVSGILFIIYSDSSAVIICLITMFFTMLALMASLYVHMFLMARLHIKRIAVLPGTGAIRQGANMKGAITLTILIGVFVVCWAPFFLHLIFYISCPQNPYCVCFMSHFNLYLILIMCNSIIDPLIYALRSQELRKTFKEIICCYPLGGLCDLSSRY
T4 sequence (P41968 whole entry): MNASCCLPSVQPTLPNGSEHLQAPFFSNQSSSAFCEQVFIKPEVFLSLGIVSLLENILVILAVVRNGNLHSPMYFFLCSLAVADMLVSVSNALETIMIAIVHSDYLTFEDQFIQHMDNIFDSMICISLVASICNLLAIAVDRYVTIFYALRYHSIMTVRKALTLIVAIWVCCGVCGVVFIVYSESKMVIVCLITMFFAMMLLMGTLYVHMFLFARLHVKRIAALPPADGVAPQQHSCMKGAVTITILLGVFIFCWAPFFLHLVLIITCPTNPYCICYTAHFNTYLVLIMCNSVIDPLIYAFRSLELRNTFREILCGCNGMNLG

In general, Ki refers to a dissociation constant, usually derived from enzyme kinetics or from competition with a known ligand. One may read the EC50 as the concentration giving half of the maximal effect. As for `CCCC[C@H](NC(C)=O)C(=O)N[C@H]1CSSC[C@@H](C(N)=O)NC(=O)[C@H](Cc2c[nH]c3ccccc23)NC(=O)[C@H](CCCNC(=N)N)NC(=O)[C@@H](Cc2ccc3ccccc3c2)NC(=O)[C@H](Cc2c[nH]cn2)NC(=O)[C@@H](C)NC1=O` [Ac-Nle-c(Cys-D-Ala-His-D-2-Nal-Arg-Trp-Cys)-NH2], the Ki at hMC5-R [1] (Ki hMC5-R) was 0.102 µM; on hMC4-R [2] (Ki KMC4-R, Table 5) it was 0.00761 µM. Also, the EC50 came to 0.0176 µM at hMC1-R [3] and 0.0118 µM at hMC5-R [5]. For the same compound, the Kb at hMC4-R [4] is 0.0388 µM; on hMC3-R [6], 0.0124 µM.
In the case of `CC(=O)N[C@@H](CCc1ccccc1)C(=O)N[C@H]1CC(=O)NCCCC[C@@H](C(N)=O)NC(=O)CCCNC(=O)[C@H](Cc2c[nH]c3ccccc23)NC(=O)[C@H](CCCNC(=N)N)NC(=O)[C@@H](Cc2ccc3ccccc3c2)NC(=O)[C@H](Cc2c[nH]cn2)NC1=O` [Ac-hPhe-c(Asp-His-D-2-Nal-Arg-Trp-Gaba-Lys)-NH2], the Ki is 0.00245 µM on hMC3-R [7] (read-out: Ki hMC3-R); 0.000931 µM at hMC4-R [2] (Table 5, read-out: Ki KMC4-R); 0.000461 µM at hMC1-R [8] (Table 5, read-out: Ki hMC1-R). Moreover, the EC50 came out at 0.000413 µM on hMC1-R [3] (Table 9C/9D, read-out: EC50 hMC1-R) and 0.000307 µM at hMC5-R [5] (Table 9C/9D, read-out: EC50 hMC5-R). In addition, the Kb was 0.000824 µM at hMC4-R [4] (Table 9C/9D, antagonist potency by Schild analysis, read-out: Kb MC4-R) and 0.00932 µM on hMC3-R [6] (Table 9C/9D, antagonist potency by Schild analysis, read-out: Kb hMC3-R).
`CCCC[C@H](NC(C)=O)C(=O)N[C@H]1CSSC[C@@H](C(N)=O)NC(=O)[C@H](Cc2c[nH]c3ccccc23)NC(=O)[C@H](CCCNC(=N)N)NC(=O)[C@@H](Cc2ccccc2)NC(=O)[C@H](Cc2c[nH]cn2)NC(=O)[C@@H](C(C)C)NC1=O` [Ac-Nle-c(Cys-D-Val-His-D-Phe-Arg-Trp-Cys)-NH2]: the Ki on hMC3-R [7] (read-out: Ki hMC3-R) was 0.104 µM; at hMC5-R [1] (read-out: Ki hMC5-R) it was 0.04 µM.
In the case of `CCCC[C@H](NC(C)=O)C(=O)N[C@@H]1C(=O)N[C@@H](Cc2c[nH]cn2)C(=O)N[C@H](Cc2ccccc2)C(=O)N[C@@H](CCCNC(=N)N)C(=O)N[C@@H](Cc2c[nH]c3ccccc23)C(=O)NCCCC(=O)N[C@H](C(N)=O)CSSC1(C)C` [Ac-Nle-c(Pen-His-D-Phe-Arg-Trp-Gaba-Cys)-NH2] (Ac-[Nle][Pen]H[dF]RW[GABA]C-NH2; disulfide 2-8 (inferred)), the Ki at hMC3-R [7] (read-out: Ki hMC3-R) worked out at 0.0861 µM; on hMC5-R [1] (read-out: Ki hMC5-R), 0.00256 µM; on hMC4-R [2] (Table 5, read-out: Ki KMC4-R) it was 0.00589 µM; at hMC1-R [8] (Table 5, read-out: Ki hMC1-R) it was 0.000537 µM.
Take `C[C@@H]1C(=O)N[C@@H](Cc2cnc[nH]2)C(=O)N[C@H](Cc2ccccc2)C(=O)N[C@@H](CCCNC(=N)N)C(=O)N[C@@H](Cc2c[nH]c3ccccc23)C(=O)N[C@H](C(N)=O)CNC(=O)C[C@@H]2NC(=O)N1C2=O` [c[Hydantoin(C(O)-(Asp-D-Ala))-His-D-Phe-Arg-Trp-Dap]-NH2]: the Ki at hMC4-R [2] (Table 7, read-out: Ki hMC4) is 0.0199 µM; at hMC1-R [8] (Table 7, read-out: Ki hMC1), 0.0666 µM. For the same compound, the EC50 on hMC4-R [4] (Table 11, read-out: EC50 hMC4) was 0.00212 µM; at hMC3-R [6] (Table 11, read-out: EC50 hMC3) it was 0.0493 µM.
Take `C[C@@H](O)[C@H](NC(=O)[C@H]1CSSC[C@H](NC(=O)[C@H](N)Cc2ccccc2)C(=O)N[C@@H](Cc2c[nH]cn2)C(=O)N[C@H](Cc2ccccc2)C(=O)N[C@@H](CCCNC(=N)N)C(=O)N[C@@H](Cc2c[nH]c3ccccc23)C(=O)NCCC(=O)N1)C(N)=O` [D-Phe-c(Cys-His-D-Phe-Arg-Trp-β-Ala-D-Cys)-Thr-NH2] (H-[dF]CH[dF]RW[βAla][dC]T-NH2; disulfide 2-8): the Ki on hMC3-R [7] (read-out: Ki hMC3-R) was 0.0432 µM; on hMC5-R [1] (read-out: Ki hMC5-R) it was 0.344 µM; on hMC4-R [2] (Table 5, read-out: Ki KMC4-R), 0.00258 µM; on hMC1-R [8] (Table 5, read-out: Ki hMC1-R), 0.000207 µM.
On to `CCCC[C@H](NC(C)=O)C(=O)N[C@H]1CSSC[C@@H](C(=O)O)NC(=O)[C@H](Cc2c[nH]c3ccccc23)NC(=O)[C@H](CCCNC(=N)N)NC(=O)[C@@H](Cc2ccccc2)NC(=O)[C@H](Cc2c[nH]cn2)NC(=O)[C@@H](C)NC1=O` [Ac-Nle-c(Cys-D-Ala-His-D-Phe-Arg-Trp-Cys)-OH], for which the Ki is 0.152 µM on hMC3-R [7] (Ki hMC3-R); 0.114 µM at hMC5-R [1] (Ki hMC5-R); 0.0156 µM at hMC4-R [2] (Ki KMC4-R, Table 5); 0.0307 µM on hMC1-R [8] (Ki hMC1-R, Table 5).
For `CCCC[C@H](NC(C)=O)C(=O)N[C@H]1CSSC(C)(C)[C@@H](C(N)=O)NC(=O)[C@H](Cc2c[nH]c3ccccc23)NC(=O)[C@H](CCCNC(=N)N)NC(=O)[C@@H](Cc2ccccc2)NC(=O)[C@H](Cc2c[nH]cn2)NC(=O)[C@@H](C)NC1=O` [Ac-Nle-c(Cys-D-Ala-His-D-Phe-Arg-Trp-Pen)-NH2], the Ki turned out to be 0.0228 µM on hMC3-R [7] (Ki hMC3-R) and 0.0291 µM at hMC1-R [8] (Ki hMC1-R, Table 5). The EC50 at hMC1-R [3] was 0.0143 µM; at hMC4-R [4], 0.000183 µM; on hMC5-R [5], 2.24 µM; at hMC3-R [6], 0.00203 µM.

(Values after patent US20120135923A1, “Use of Melanocortins to Treat Dyslipidemia” (IPSEN PHARMA, S.A.S., priority 2009, published 2012).)
